Source: paper PMC6917776, “Discovery of a chemical probe for PRDM9” (Nature Communications, 2019)

Assays:
CAL851 = assay: CelltiterGlo viability cell assay; type: cell-based
Procedure: (§1) Supplementary Figure 13. […] Viability of
(§2) (a) Multiple Myeloma lines and (b) Breast Cancer cell lines following 3 or 6 days treatment with […]
(§3) manufacturer’s instructions as described in the Supplementary methods. Data are normalized to DMSO control. N=3 biological replicates, +/- SEM. Source data are provided as a Source Data […]
(§4) CelltiterGlo viability cell assay
(§5) Cells were seeded in 96 well plates at per-well densities of 10000 (MDA-MB436, ATCC-HTB130), 15000 (8226, kind gift from Rodger Tiedemann, Princess Margaret Cancer Centre), […]
(§6) kind gift from Rodger Tiedemann, Princess Margaret Cancer Centre) and 50000 (CAL851, kind gift from Mathieu Lupien, Princess Margaret Cancer Centre) and were treated at increasing concentrations of compounds ranging from 0.01 μM to 30 μM and assessed for proliferation using CelltiterGlo (Promega) following manufacturer’s instructions, as readout on days 3 and 6 as indicated. All cell lines were mycoplasma negative, as determined by MycoAlert™ Mycoplasma Detection Kit(Lonza). […]

RPMI-8226 = assay: CelltiterGlo viability cell assay; type: cell-based; conditions: 8226, 3 day
Procedure: as §1, §2, §3, §4, §5, §6

COc1cc(OC)cc(-c2noc(N3CCN(C)C4(CCN(c5ccccc5)CC4)C3)n2)c1 [MRK-740N]
viability Average (CAL851; CAL851, 3 day, 0.01 uM): 102.43
viability Replicate 1 (CAL851; CAL851, 3 day, 0.01 uM): 104.57
viability Replicate 2 (CAL851; CAL851, 3 day, 0.01 uM): 100.53
viability Replicate 3 (CAL851; CAL851, 3 day, 0.01 uM): 102.20
viability Average (CAL851; CAL851, 3 day, 0.03 uM): 101.16
viability Replicate 1 (CAL851; CAL851, 3 day, 0.03 uM): 95.74
viability Replicate 2 (CAL851; CAL851, 3 day, 0.03 uM): 100.94
viability Replicate 3 (CAL851; CAL851, 3 day, 0.03 uM): 106.79
viability Average (CAL851; CAL851, 3 day, 0.1 uM): 104.74
viability Replicate 1 (CAL851; CAL851, 3 day, 0.1 uM): 106.32
viability Replicate 2 (CAL851; CAL851, 3 day, 0.1 uM): 96.40
viability Replicate 3 (CAL851; CAL851, 3 day, 0.1 uM): 111.49
viability Average (CAL851; CAL851, 3 day, 0.3 uM): 106.71
viability Replicate 1 (CAL851; CAL851, 3 day, 0.3 uM): 111.33
viability Replicate 2 (CAL851; CAL851, 3 day, 0.3 uM): 101.82
viability Replicate 3 (CAL851; CAL851, 3 day, 0.3 uM): 106.99
viability Average (CAL851; CAL851, 3 day, 1 uM): 96.30
viability Replicate 1 (CAL851; CAL851, 3 day, 1 uM): 98.38
viability Replicate 2 (CAL851; CAL851, 3 day, 1 uM): 96.24
viability Replicate 3 (CAL851; CAL851, 3 day, 1 uM): 94.27
viability Average (CAL851; CAL851, 3 day, 3 uM): 97.71
viability Replicate 1 (CAL851; CAL851, 3 day, 3 uM): 91.85
viability Replicate 2 (CAL851; CAL851, 3 day, 3 uM): 95.91
viability Replicate 3 (CAL851; CAL851, 3 day, 3 uM): 105.37
viability Average (CAL851; CAL851, 3 day, 9.5 uM): 95.86
viability Replicate 1 (CAL851; CAL851, 3 day, 9.5 uM): 89.90
viability Replicate 2 (CAL851; CAL851, 3 day, 9.5 uM): 94.75
viability Replicate 3 (CAL851; CAL851, 3 day, 9.5 uM): 102.94
viability Average (CAL851; CAL851, 3 day, 30 uM): 88.50
viability Replicate 1 (CAL851; CAL851, 3 day, 30 uM): 89.70
viability Replicate 2 (CAL851; CAL851, 3 day, 30 uM): 92.97
viability Replicate 3 (CAL851; CAL851, 3 day, 30 uM): 82.83
viability Average (CAL851; CAL851, 6 day, 0.01 uM): 99.23
viability Replicate 1 (CAL851; CAL851, 6 day, 0.01 uM): 100.50
viability Replicate 2 (CAL851; CAL851, 6 day, 0.01 uM): 95.18
viability Replicate 3 (CAL851; CAL851, 6 day, 0.01 uM): 102.02
viability Average (CAL851; CAL851, 6 day, 0.03 uM): 103.06
viability Replicate 1 (CAL851; CAL851, 6 day, 0.03 uM): 101.15
viability Replicate 2 (CAL851; CAL851, 6 day, 0.03 uM): 96.95
viability Replicate 3 (CAL851; CAL851, 6 day, 0.03 uM): 111.07
viability Average (CAL851; CAL851, 6 day, 0.1 uM): 96.92
viability Replicate 1 (CAL851; CAL851, 6 day, 0.1 uM): 94.85
viability Replicate 2 (CAL851; CAL851, 6 day, 0.1 uM): 96.64
viability Replicate 3 (CAL851; CAL851, 6 day, 0.1 uM): 99.28
viability Average (CAL851; CAL851, 6 day, 0.3 uM): 101.38
viability Replicate 1 (CAL851; CAL851, 6 day, 0.3 uM): 95.47
viability Replicate 2 (CAL851; CAL851, 6 day, 0.3 uM): 94.74
viability Replicate 3 (CAL851; CAL851, 6 day, 0.3 uM): 113.94
viability Average (CAL851; CAL851, 6 day, 1 uM): 102.45
viability Replicate 1 (CAL851; CAL851, 6 day, 1 uM): 100.66
viability Replicate 2 (CAL851; CAL851, 6 day, 1 uM): 100.26
viability Replicate 3 (CAL851; CAL851, 6 day, 1 uM): 106.42
viability Average (CAL851; CAL851, 6 day, 3 uM): 100.92
viability Replicate 1 (CAL851; CAL851, 6 day, 3 uM): 96.08
viability Replicate 2 (CAL851; CAL851, 6 day, 3 uM): 95.38
viability Replicate 3 (CAL851; CAL851, 6 day, 3 uM): 111.29
viability Average (CAL851; CAL851, 6 day, 9.5 uM): 96.88
viability Replicate 1 (CAL851; CAL851, 6 day, 9.5 uM): 95.12
viability Replicate 2 (CAL851; CAL851, 6 day, 9.5 uM): 99.49
viability Replicate 3 (CAL851; CAL851, 6 day, 9.5 uM): 96.04
viability Average (CAL851; CAL851, 6 day, 30 uM): 87.30
viability Replicate 1 (CAL851; CAL851, 6 day, 30 uM): 87.23
viability Replicate 2 (CAL851; CAL851, 6 day, 30 uM): 87.15
viability Replicate 3 (CAL851; CAL851, 6 day, 30 uM): 87.51
viability Average (RPMI-8226; 0.01 uM): 101.19
viability Replicate 1 (RPMI-8226; 0.01 uM): 100.76
viability Replicate 2 (RPMI-8226; 0.01 uM): 100.18
viability Replicate 3 (RPMI-8226; 0.01 uM): 102.63
viability Average (RPMI-8226; 0.03 uM): 99.22
viability Replicate 1 (RPMI-8226; 0.03 uM): 99.66
viability Replicate 2 (RPMI-8226; 0.03 uM): 95.69
viability Replicate 3 (RPMI-8226; 0.03 uM): 102.30
viability Average (RPMI-8226; 0.1 uM): 101.66
viability Replicate 1 (RPMI-8226; 0.1 uM): 102.47
viability Replicate 2 (RPMI-8226; 0.1 uM): 99.05
viability Replicate 3 (RPMI-8226; 0.1 uM): 103.47
viability Average (RPMI-8226; 0.3 uM): 100.14
viability Replicate 1 (RPMI-8226; 0.3 uM): 98.42
viability Replicate 2 (RPMI-8226; 0.3 uM): 99.23
viability Replicate 3 (RPMI-8226; 0.3 uM): 102.78
viability Average (RPMI-8226; 1 uM): 99.15
viability Replicate 1 (RPMI-8226; 1 uM): 95.47
viability Replicate 2 (RPMI-8226; 1 uM): 99.58
viability Replicate 3 (RPMI-8226; 1 uM): 102.40
viability Average (RPMI-8226; 3 uM): 100.92
viability Replicate 1 (RPMI-8226; 3 uM): 100.27
viability Replicate 2 (RPMI-8226; 3 uM): 100.06
viability Replicate 3 (RPMI-8226; 3 uM): 102.42
viability Average (RPMI-8226; 9.5 uM): 90.08
viability Replicate 1 (RPMI-8226; 9.5 uM): 80.69
viability Replicate 2 (RPMI-8226; 9.5 uM): 88.67
viability Replicate 3 (RPMI-8226; 9.5 uM): 100.87
viability Average (RPMI-8226; 30 uM): 40.55
viability Replicate 1 (RPMI-8226; 30 uM): 58.77
